The source of these data is US20240148819A1, “COMPOUNDS FOR USE IN THE TREATMENT OF SINUSITIS, PNEUMONIA OR OTITIS” (PHARMA HOLDINGS AS, priority 2021, published 2024).

Values after ≈ are worked out from the molar mass of the structure shown. Read-outs that look alike come from different tables or passages of the source.

The subject of series [1] is Influenza A strain A/WSN/33 (H1N1). The class given is cell-based, Influenza A virus.
The subject of series [2] is Rhinovirus (HRV-A60), Strain: 2268-CV37. Nature of the series: TCID50 assay after 1 h incubation of virus with LTX-7 (Example 10). To be noted: 1% LTX-7 or 0.25% SDS; for % Reduction: Rhinovirus infectivity; for % Reduction / Log decrease: compared to PBS control; for Log decrease: Rhinovirus. The class given is cell-based.
A further series concerns Moraxella catarrhalis. How it is done:
(§1) Bacterial and fungal isolates used in this study were from various sources worldwide stored at GR Micro Ltd. and maintained, with minimal sub-culture, deep frozen at −70° C. as a dense suspension in a high protein matrix of undiluted horse serum.
(§2) Minimum inhibitory concentration (MIC) of LTX-109 was determined using the following microbroth dilution methods for antimicrobial susceptibility testing published by the Clinical and Laboratory Standards Institute (CLSI, formerly NCCLS): • M7-A6 Vol. 23 No. 2 Jan. 2003 Methods for Dilution Antimicrobial Susceptibility Tests for Bacteria that Grow Aerobically; Approved Standard-Sixth Edition. National Committee for Clinical Laboratory Standards. • M100-S15 Vol. 25 No 1. January 2005 Performance Standards for Antimicrobial Susceptibility Testing; Fifteenth Informational Supplement. Clinical and Laboratory Standards Institute • M11-A6 Vol. 24 No. 2 Methods for Antimicrobial Susceptibility Testing of Anaerobic Bacteria; Approved Standard-Sixth Edition. National Committee for Clinical Laboratory Standards. • M27-A2 Vol. 22 No. 15 Reference Method for Broth Dilution Antifungal Susceptibility Testing of Yeasts; Approved Standard-Second Edition. National Committee for Clinical Laboratory Standards. • M38-A Vol. 22 No. 16 Reference Method for Broth Dilution Antifungal Susceptibility Testing of Filamentous Fungi; Approved Standard. National Committee for Clinical Laboratory Standards.
(§3) MIC estimations were performed using wet plates, containing the LTX-109, prepared at GR Micro Ltd.
(§4) Cation-adjusted Mueller-Hinton broth (Oxoid Ltd., Basingstoke, UK and Trek Diagnostic Systems Ltd., East Grinstead, UK) (supplemented with 5% laked horse blood for Streptococcus spp.) was used for aerobic bacteria, with an initial inoculum of approximately 10^5 colony-forming units (CFU)/mL.
(§5) Following normal practice all the plates containing Mueller-Hinton broth were prepared in advance, frozen at −70° C. on the day of preparation and defrosted on the day of use. Fungal, Haemophilus and anaerobic MIC determinations were all performed in plates prepared on the same day.

A further series has as its system Streptococcus pneumoniae. How it is done: as §1, §2, §3, §4, §5
The next series has as its system Streptococcus pyogenes. As to conditions: Streptococcus pyogenes - macrolide (MLS) resistant clinical isolate. How it is done:
as §1, §2, §3, §4, §5

The next series has as its system Aspergillus niger. As to conditions: Aspergillus niger - G. R. Micro collection. How it is done:
as §1, §2, §3
(§6) Yeast and filamentous fungal MIC were performed in MOPS buffered RPMI 1640 medium (MOPS buffer obtained from Sigma Aldrich Ltd., RPMI 1640 obtained from Invitrogen Ltd, Paisley, Scotland). The yeast inocula were in the range 7.5×10^2-4×10^3 CFU/mL and the filamentous fungi approximately 8×10^3-1×10^5 CFU/mL.
as §5

Another series has as its system Candida albicans. How it is done:
as §1, §2, §3, §6, §5

The next series relates to Candida krusei. To be noted: Candida krusei - ATCC6258 - reference strain. How it is done: as §1, §2, §3, §6, §5
The test system of the next series is Candida parapsilosis. As to conditions: Candida parapsilosis - ATCC90018 - reference strain. How it is done:
as §1, §2, §3, §6, §5

A further series has as its system Candida tropicalis. As to conditions: Candida tropicalis - ATCC750 - reference strain. How it is done:
as §1, §2, §3, §6, §5

Another series concerns Mycoplasma pneumoniae. As to conditions: both of the library strains of Mycoplasma pneumoniae. How it is done:
Two library strains of Mycoplasma pneumoniae were used. These strains were stored at GR Micro Ltd. and maintained, with minimal sub-culture, deep frozen at −70° C. as a dense suspension in a high protein matrix of undiluted horse serum.
MIC determination was carried out using a broth microdilution method in Mycoplasma Broth Base (Oxoid Ltd, Hampshire, UK), prepared according to the manufacturer's instructions.

The next series has as its system MDCK-II cells. To be noted: 1% LTX-7 (w/v) or 0.2% Triton X-100 in PBS, contact time 1 h, after filtration, no virus.
The next series has as its system HeLaM cells. To be noted: 1% LTX-7 (w/v) or 0.25% SDS in PBS, contact time 1 h, after filtration, no virus.
Series [3] has as its system Rhinovirus 60, 2268-CV37. As to the kind of experiment: TCID50 assay after 1 h incubation of virus with 1% LTX-109 (Example 6). The series is classed as cell-based.
Series [4] deals with Rhinovirus 60, 2268-CV37. As to the kind of experiment: TCID50 assay after 1 h incubation of virus with 3% LTX-109, stopped by dilution (Example 7). The series is classed as cell-based.
The subject of series [5] is HeLa cells. As to the kind of experiment: Parallel test without virus for residual cytotoxicity (Example 7). The class given is cell-based, human. To be noted: 3% LTX-109 (w/v) or 0.25% SDS, after dilution (50 μl in 5 ml), no virus.
Experimental: (§7) A parallel test where the same procedure was carried out in the absence of virus was included to determine any residual cytotoxic effect of the formulation on the assay cells.
Series [6] deals with HeLa cells. To be noted: 1% LTX-109 (w/v) or 0.25% SDS, after filtration, no virus, dilution showing cytotoxicity.
Experimental: as §7
Series [7] concerns SARS-CoV-2 isolate England/02/2020. The series is classed as cell-based.
The next series deals with Vero cells. As to the kind of experiment: Parallel test without virus for residual cytotoxicity (Example 8). As to conditions: 1% LTX-12 (w/v) or 0.2% Triton in PBS, contact time 1 h, after filtration, no virus.

Experimental for HeLaM cells: (§8) A parallel test where the same procedure was carried out in the absence of virus was included to determine any residual cytotoxic effect of LTX-7 on the assay cells.
Experimental for MDCK-II cells: as §8

Regarding `N=C(N)NCCCC(N)C(=O)NC(Cc1ccc(-c2ccc3ccccc3c2)cc1)C(=O)NC(CCCNC(=N)N)C(=O)NCCc1ccccc1` (stereo not drawn) [LTX-7, Arg-Phe(4-(2-Naphthyl))-Arg-NH—CH2—CH2-Ph], the “% Reduction” value in [1] is given as 99.9988%; in [2], 95.791%. For the same compound, in series [2], the Log decrease turned out to be 1.33 log. Moreover, the MIC (as a rule, the lowest concentration found to suppress growth) with Moraxella catarrhalis (Moraxella catarrhalis - reduced fluoroquinolone susceptibility clinical isolate) is 8 µg/mL (≈ 11.3 µM); in the series on Moraxella catarrhalis (Moraxella catarrhalis - β-lactamase positive clinical isolate) it was 4 µg/mL (≈ 5.66 µM); against Streptococcus pneumoniae (Streptococcus pneumoniae - penicillin intermediate clinical isolate), 32 µg/mL (≈ 45.3 µM); in the series on Streptococcus pneumoniae (Streptococcus pneumoniae - penicillin resistant clinical isolate), 32 µg/mL (≈ 45.3 µM); against Streptococcus pyogenes, 32 µg/mL (≈ 45.3 µM); with Aspergillus niger, 4 µg/mL (≈ 5.66 µM). Besides, the minimal inhibitory concentration (MIC) against Candida albicans (Candida albicans - ATCC24433 - reference strain) turned out to be 2 µg/mL (≈ 2.83 µM); in the series on Candida albicans (Candida albicans - ATCC90028 - reference strain) it was 2 µg/mL (≈ 2.83 µM); in the series with Candida krusei, 4 µg/mL (≈ 5.66 µM); in the series on Candida parapsilosis it was 4 µg/mL (≈ 5.66 µM); in the series on Candida tropicalis it was 2 µg/mL (≈ 2.83 µM); in the series on Mycoplasma pneumoniae, 32 µg/mL (≈ 45.3 µM). The Cytotoxicity entry with MDCK-II cells is “neat”; with HeLaM cells, “Neat”.

With `CCCCCCCCCCCCOS(=O)(=O)[O-].[Na+]` [SDS, Sodium dodecyl sulphate], the “TCID50/ml ± SEM” value in the series on Rhinovirus 60, 2268-CV37 [3] (Rhinovirus titre recovered after 1 hour with 1% LTX-109 (w/v) or 0.25% SDS, filtration, HeLa cells, 7 days) is reported as 1.00E+02 TCID50/ml; in the series on Rhinovirus 60, 2268-CV37 [4] (Rhinovirus titre recovered after 1 hour with 3% LTX-109 (w/v) or 0.25% SDS, dilution, no filter, HeLa cells, 7 days), 1.58E+01 TCID50/ml. The Log decrease with Rhinovirus 60, 2268-CV37 [3] (Rhinovirus, 1% LTX-109 or 0.25% SDS, 1 hour, compared to PBS control) is reported as 3.6 log; in the series on Rhinovirus 60, 2268-CV37 [4] (Rhinovirus, 3% LTX-109 or 0.25% SDS, 1 hour, compared to PBS control), 3.0 log; in series [2] it was 3.67 log. For the same compound, the Percentage was 99.98% in the series on Rhinovirus 60, 2268-CV37 [3] (decrease in Rhinovirus infectivity, 1% LTX-109 or 0.25% SDS, 1 hour, compared to PBS control) and 99.91% in the series with Rhinovirus 60, 2268-CV37 [4] (decrease in Rhinovirus infectivity, 3% LTX-109 or 0.25% SDS, 1 hour, compared to PBS control). For the same compound, the Log with Rhinovirus 60, 2268-CV37 [3] (log of Rhinovirus titre after 1 hour with 1% LTX-109 or 0.25% SDS) is on record as 2.0; in the series on Rhinovirus 60, 2268-CV37 [4] (log of Rhinovirus titre after 1 hour with 3% LTX-109 or 0.25% SDS) it was 1.2. Also, the Cytotoxicity result in the series with HeLa cells [5], with HeLa cells [6] and with HeLaM cells was “Neat” throughout. For the same compound, the “% Reduction” value in series [2] was 99.983%. The same compound came in with a Rounded % in series [2] (rounded % reduction of Rhinovirus infectivity) of 99.9%.

Take `CC(C)(C)c1cc(C(C)(C)C)c2[nH]c(C(C)(C)C)c(CC(NC(=O)C(N)CCCCN)C(=O)NC(CCCCN)C(=O)NCCc3ccccc3)c2c1` (stereo not drawn) [LTX-12, Lys-Tbt-Lys-NH—CH2—CH2-Ph]: the “% Reduction” value in series [7] is 99.977%. Besides, in the series with Vero cells, the Cytotoxicity entry is recorded as “No cytotoxicity”.
